The test relates to NMRI mice. Kind of test: Passive avoidance (associative memory). It is filed as in vivo, mouse. The settings on record: mice pre-treated before training, test after 24 hours; different concentrations; FIG. 17. The procedure:
PURPOSE: To test the pharmacological effect of compounds on associative memory.
PRINCIPLE: A Mouse is placed in a light compartment with access to a dark compartment. If it enter the dark compartment it will receive a foot-shock (0.4 mA). After a delay (24 hours) the association to risk an unpleasant foot-shock by re-entering the dark compartment is tested.
ANIMALS: Female NMRI mice (Bomholdtgaard, DK) weighing 22–25 g were used. The mice were kept in Macrolon plastic cages with free access to food (Altromin, DK) and tap water. The mice were habituated to the laboratory for at least 3 days before testing (light on 7:00am/light off 7:00 pm).
EQUIPMENT: The passive avoidance apparatus consisted of a modular test chambers (ENV-307, MED-Associates, US). The light and the dark compartment consisted of plexiglas boxes of equal size (15×17×13 cm; width×length×height) with metal grid floors. A sliding guillotine door was located at the aperture (4×4 cm) connecting the two compartments. […]
[…]: Entry latency (sec) to re-enter the dark compartment was measured. […]
Training: One mouse is placed in the light compartment and the guillotine door to the dark compartment is opened. […] Test: After a delay (24 hours) the mouse will re-enter the light compartment and time latency to enter the dark compartment is measured with a time limit at 2 minutes. […]

In the case of `CN1CCN(S(=O)(=O)c2ccc3c(c2)S(=O)(=O)NC(C2CCCCC2)N3)CC1` (stereo not shown) [Compound 61, 3-Cyclohexyl-7-(4′-methylpiperazino)sulfonyl-1,2,3,4-tetrahydro-1,2,4-benzothiadiazine-1,1-dioxide], the “entry latency to re-enter the dark compartment (memory)” value is recorded as “memory enhancing effect”.

Source of the values: patent publication US7235548B2, “Compounds and their use as positive AMPA receptor modulators” (NeuroSearch A/S, priority 1998, dated 2007).
